From PMC11965401 (Nature Communications, 2025)

Experiments:
CoREST1^NT2-HDAC2 = molecular target: T1, CoREST1^NT2-HDAC2 (Homo sapiens, UniProt Q92769); assay: microscale thermophoresis, competition with labelled KBTBD4 R313PRR; conditions: blocks KBTBD4 R313PRR binding to HDAC2; HDAC2 catalytic site; pH 7.5, 25 °C
T1 construct: untagged full-length HDAC2 1-488 co-expressed with CoREST1 ELM2-SANT1 71-259 (C-terminal FLAG/10xHis) in Expi293F, purified; with REST corepressor 1

[1] = molecular target: T2, KBTBD4^WT with CoREST1^NT2-HDAC2 (ternary complex) (Homo sapiens, UniProt Q92769+Q9NVX7); assay: microscale thermophoresis, labelled KBTBD4 WT; assay type: binding
T2 construct: FLAG-KBTBD4 17-534 (near full length, dimer, N-terminal 3xFLAG); untagged full-length HDAC2 1-488 co-expressed with CoREST1 ELM2-SANT1 71-259 carrying C-terminal FLAG/10xHis; Expi293F; purified; complexes 2:1:1, also 2:1 and 2:2 KBTBD4:HDAC2 by cryo-EM; with REST corepressor 1

[2] = molecular target: FLAG-KBTBD4^R313PRR (17-536 a.a.), full-length dimer (human (from the printed UniProt entry)) (UniProt Q9NVX7); assay: MST; unlabelled partner titrated into 40 nM RED-NHS-labelled KBTBD4 variant, no compound; 50 mM HEPES pH 7.5, 150 mM NaCl, 10% glycerol, 5 mM MgCl2, 0.05% Tween-20, 0.1 mM TCEP; 25 °C; apparent KD; triplicates
[3] = molecular target: FLAG-KBTBD4^R313PRR (17-536 a.a.), full-length dimer (human (from the printed UniProt entry)), Q9NVX7; assay: cryo-EM structure; 4 µM KBTBD4^R313PRR mixed with 4 µM CoREST1^NT2-HDAC2, 50 mM HEPES pH 7.5, 150 mM NaCl, 10% glycerol, 5 mM MgCl2, 0.5 mM TCEP, 15 min on ice, not crosslinked; conditions: remark: other sources report otherwise
[4] = molecular target: FLAG-KBTBD4^WT (17-534 a.a.) (human (from the printed UniProt entry)), Q9NVX7; assay: cryo-EM structure; 4 µM KBTBD4^WT, 4 µM CoREST1^NT2-HDAC2 and 40 µM UM171, 50 mM HEPES pH 7.5, 150 mM NaCl, 5% glycerol, 5 mM MgCl2, 0.5 mM TCEP, crosslinked with BS3; conditions: remark: other sources report otherwise

Q: Which “microscale thermophoresis, competition with labelled KBTBD4 R313PRR” value (CoREST1^NT2-HDAC2) does the source give for `CC(=O)Nc1ccc(C(=O)Nc2cc(-c3cccs3)ccc2N)cc1` [BRD6929] here?
A: the addition of BRD6929 abrograted all KBTBD4^R313PRR-HDAC2 binding in the MST assay

Q: Which Kd [1] does the source give for `Cn1cc(-c2ccc3c(c2)[nH]c2nc(Cc4ccccc4)nc(NC4CCC(N)CC4)c23)cn1` (stereo not drawn) [compound 2, compound (2)] here?
A: 26000 nM

Q: For `COC(=O)c1ccc2c(c1)[nH]c1nc(Cc3ccccc3)nc(NCCCN3CCCC3)c12` [compound 13, S234984], which Kd [1] is on record?
A: 2300 nM

Q: “CoREST1^NT2-HDAC2 complex (recombinant, co-expressed) (from UniProt Q92769-1 1-488)” was tested. Which Kd [2] did it give?
A: 750 nM

B1: FLAG-KBTBD4^R313PRR (17-536 a.a.), full-length dimer, Q9NVX7-2 17-534 (natural protein)
chain: MESPEEPGASMDENYFVNYTFKDRSHSGRVAQGIMKLCLEEELFADVTISVEGREFQLHRLVLSAQSCFFRSMFTSNLKEAHNRVIVLQDVSESVFQLLVDYIYHGTVKLRAEELQEIYEVSDMYQLTSLFEECSRFLARTVQVGNCLQVMWLADRHSDPELYTAAKHCAKTHLAQLQNTEEFLHLPHRLLTDIISDGVPCSQNPTEAIEAWINFNKEEREAFAESLRTSLKEIGENVHIYLIGKESSRTHSLAVSLHCAEDDSISVSGQNSLCHQITAACKHGGDLYVVGGSIPRPRRMWKCNNATVDWEWCAPLPRDRLQHTLVSVPGKDAIYSLGGKTLQDTLSNAVIYYRVGDNVWTETTQLEVAVSGAAGANLNGIIYLLGGEENDLDFFTKPSRLIQCFDTETDKCHVKPYVLPFAGRMHAAVHKDLVFIVAEGDSLVCYNPLLDSFTRLCLPEAWSSAPSLWKIASCNGSIYVFRDRYKKGDANTYKLDPATSAVTVTRGIKVLLTNLQFVLA
modifications: here or on the partner: RED-NHS 2nd generation fluorescent label, in the MST experiments only; RED-NHS 2nd generation fluorescent label, in the MST experiments only
Q: For B1, which stoichiometry N [3] is on record?
A: 2

B2: FLAG-KBTBD4^WT (17-534 a.a.), Q9NVX7-2 17-534 (natural protein)
chain: MESPEEPGASMDENYFVNYTFKDRSHSGRVAQGIMKLCLEEELFADVTISVEGREFQLHRLVLSAQSCFFRSMFTSNLKEAHNRVIVLQDVSESVFQLLVDYIYHGTVKLRAEELQEIYEVSDMYQLTSLFEECSRFLARTVQVGNCLQVMWLADRHSDPELYTAAKHCAKTHLAQLQNTEEFLHLPHRLLTDIISDGVPCSQNPTEAIEAWINFNKEEREAFAESLRTSLKEIGENVHIYLIGKESSRTHSLAVSLHCAEDDSISVSGQNSLCHQITAACKHGGDLYVVGGSIPRRMWKCNNATVDWEWCAPLPRDRLQHTLVSVPGKDAIYSLGGKTLQDTLSNAVIYYRVGDNVWTETTQLEVAVSGAAGANLNGIIYLLGGEENDLDFFTKPSRLIQCFDTETDKCHVKPYVLPFAGRMHAAVHKDLVFIVAEGDSLVCYNPLLDSFTRLCLPEAWSSAPSLWKIASCNGSIYVFRDRYKKGDANTYKLDPATSAVTVTRGIKVLLTNLQFVLA
modifications: here or on the partner: RED-NHS 2nd generation fluorescent label, in the MST experiments only; RED-NHS 2nd generation fluorescent label, in the MST experiments only
Q: With B2 as the molecule, how does the stoichiometry N [4] read?
A: 2
